Source: patent US20220133846A1, “NOVEL ANTIMICROBIAL COMPOUND AND USES THEREOF” (priority 2019, published 2022)
≈ marks a conversion by molar mass, not a printed value. Where “and” joins values, the source holds several entries; their conditions need not be identical. Equal values may be shown once. Entries after “also recorded” stand apart in the source; their conditions may differ. Read-outs that look alike come from different tables or passages of the source.

Experiments:
MDR S. aureus (CH-11) = assay: Frequency of resistance (FoR) in vitro; format: cell-based
[1] = test system: Staphylococcus haemolyticus strain JCM 2416; assay: microbe, parasite or virus in culture; conditions: JCM2416
[2] = test system: Staphylococcus aureus strain NBRC 100910; assay: MIC against clinical isolates (Christiana Hospital); format: cell-based
S. aureus (ATCC #29213) = format: cell-based
[3] = test system: Staphylococcus genus clinical strain CH-16 (16S ID n/a); assay: microbe, parasite or virus in culture; format: cell-based; conditions: clinical strain CH-16, drug resistance Y
[4] = Stability in whole blood and plasma (zone of inhibition, diffusion method); format: in vitro ADME, mouse; conditions: for Whole blood ZOI: 400 μg/mL added to mouse whole blood; for Plasma fraction ZOI: plasma from treated whole blood
Method: The antimicrobial activity remaining in blood was measured by the diffusion method and expressed as the zone of inhibition (ZOI), proportional to the amount of activity remaining in blood (Table 11). Zone of inhibition (ZOI) is a zone of bacteria free agar plate after depositing 2 μL of a tested sample. In parallel, CMB001 treated blood was centrifuged to remove blood cells and the level of CMB001 was tested in the supernatant (plasma).

S. aureus = assay: Thermal and chemical (pH) short-term stability, antibacterial activity remaining; format: physicochemical; conditions: 4 to 60° C. for 18 hours, and 37° C. at pH 3.0-9.0
Method: Samples were clarified by centrifugation (16,000×g for 5 min) and soluble fractions were tested for antibacterial activity (against S. aureus) and examined by analytical HPLC.

J774A mouse BALB/c cells = assay: Toxicity to mammalian cells (cell viability); conditions: up to 1,500 μg/mL, 24 hours
in vivo = conditions: male, CD1, mouse, iv, 30 mg/kg; for clearance / MRT / Vd / half-life: blood; for clearance: CL/CL_F; for clearance / MRT / Vd: IV 30 mg/kg; for Vd: Vdss; for half-life: t1/2, IV 30 mg/kg
[5] = test system: Enterococcus faecalis strain NBRC 100480
[6] = test system: S. aureus NRS 384 (USA300-0114); assay: Murine neutropenic thigh infection model; format: in vivo, mice
[7] = Stability in human serum or plasma (MIC after incubation); format: in vitro ADME
Method: Stability studies were also performed in the presence of plasma or serum, or in whole blood.

[8] = 1 mg/mL solution, pH 7.0, 10 minutes, centrifugation
[9] = IV 30 mg/kg; for AUC % Back Extrapolation to C0 / AUC % Extrapolation to infinity / tlast: blood; for Mean Concentration in blood: male CD1 mice
[10] = test system: Staphylococcus haemolyticus strain JCM 2416
A. baumannii (CH-46) = assay: Frequency of resistance (FoR) in vitro; format: cell-based
S. aureus or MRSA = assay: Bacteriolytic activity (time-kill, OD600); format: cell-based; conditions: twice the MIC, mid-exponential growth, over 20 hours
[11] = individual animals 1-3, 30 mg/kg

COc1cccc(OC)c1C(=O)N[C@@H]1C(=O)N2[C@@H]1SC(C)(C)[C@@H]2C(=O)O [Methicillin]
Frequency of resistance (FoR) (MDR S. aureus (CH-11); 2X MIC): resistant
Frequency of resistance (FoR) (MDR S. aureus (CH-11); 3X MIC): resistant
Frequency of resistance (FoR) (MDR S. aureus (CH-11); 4X MIC): resistant
Frequency of resistance (FoR) (MDR S. aureus (CH-11); 5X MIC): resistant
Frequency of resistance (FoR) (MDR S. aureus (CH-11); 10X MIC): resistant
MIC [1]: 8 µg/mL (≈ 21 µM)
MIC ([2]; NBRC100910, clinical strain CH-01, drug resistance N): 1 µg/mL (≈ 2.63 µM)
MIC ([2]; NBRC100910, clinical strain CH-02, drug resistance N): 1 µg/mL (≈ 2.63 µM)
MIC ([2]; NBRC100910, clinical strain CH-03, drug resistance N): 1 µg/mL (≈ 2.63 µM)
MIC ([2]; NBRC100910, clinical strain CH-04, drug resistance N): 2 µg/mL (≈ 5.26 µM)
MIC ([2]; NBRC100910, clinical strain CH-05, drug resistance N): 1 µg/mL (≈ 2.63 µM)
MIC ([2]; NBRC100910, clinical strain CH-06, drug resistance N): 1 µg/mL (≈ 2.63 µM)
MIC ([2]; NBRC100910, clinical strain CH-07, drug resistance N): 1 µg/mL (≈ 2.63 µM)
MIC ([2]; NBRC100910, clinical strain CH-08, drug resistance N): 1 µg/mL (≈ 2.63 µM)
MIC ([2]; NBRC100910, clinical strain CH-09, drug resistance N): 8 µg/mL (≈ 21 µM)
MIC ([2]; NBRC100910, clinical strain CH-10, drug resistance N): 1 µg/mL (≈ 2.63 µM)
MIC ([2]; NBRC100910, clinical strain CH-11, drug resistance Y): 32 µg/mL (≈ 84.1 µM)
MIC ([2]; NBRC100910, clinical strain CH-12, drug resistance Y): 16 µg/mL (≈ 42.1 µM)
MIC ([2]; NBRC100910, clinical strain CH-13, drug resistance Y): > 64 µg/mL
MIC ([2]; NBRC100910, clinical strain CH-14, drug resistance Y): > 64 µg/mL
MIC ([2]; NBRC100910, clinical strain CH-15, drug resistance Y): > 64 µg/mL
MIC ([2]; NBRC100910, clinical strain CH-17, drug resistance Y): 16 µg/mL (≈ 42.1 µM)
MIC ([2]; NBRC100910, clinical strain CH-20, drug resistance Y): 4 µg/mL (≈ 10.5 µM)
Frequency of resistance (FoR) (S. aureus (ATCC #29213); 2X MIC): <3.72 × 10^−10
Frequency of resistance (FoR) (S. aureus (ATCC #29213); 3X MIC): <3.72 × 10^−10
Frequency of resistance (FoR) (S. aureus (ATCC #29213); 4X MIC): <3.72 × 10^−10
Frequency of resistance (FoR) (S. aureus (ATCC #29213); 5X MIC): <3.72 × 10^−10
Frequency of resistance (FoR) (S. aureus (ATCC #29213); 10X MIC): <3.72 × 10^−10
MIC [3]: 64 µg/mL (≈ 168 µM)

C=C(NC(=O)[C@@H](NC(=O)[C@H](Cc1c[nH]cn1)NC(=O)[C@@H]1CS[C@@H](C)[C@H]2NC(=O)[C@H](C)NC(=O)[C@H](NC(=O)[C@H](CCC(N)=O)NC(=O)[C@@H](NC(=O)[C@H](Cc3ccccc3)NC(=O)[C@@H]3CS[C@@H](C)[C@@H](NC(=O)[C@@H](NC(=O)[C@@H]4CS[C@@H](C)[C@@H](NC(=O)[C@@H]5CSC[C@@H](NC(=O)[C@H](CCCCN)NC(=O)[C@@H](N)Cc6c[nH]c7ccccc67)C(=O)N[C@@H](CCC(N)=O)C(=O)NC(=C)C(=O)N[C@@H](Cc6ccccc6)C(=O)N5)C(=O)N5CCC[C@H]5C(=O)NCC(=O)N4)C(C)C)C(=O)NCC(=O)N[C@@H](C(C)C)C(=O)N[C@@H](CC(C)C)C(=O)N[C@@H](CCC(N)=O)C(=O)N/C(=C\C)C(=O)N3)[C@@H](C)CC)[C@H](C)SC[C@H](NC2=O)C(=O)N[C@@H](CC(N)=O)C(=O)N1)[C@@H](C)CC)C(=O)N[C@@H](CCCCN)C(=O)O [CMB001, WKAQX1FAX3PGAVX3GVLQX2AFIQX3AX3ANAHIX1K (SEQ ID NO: 1)]
Frequency of resistance (FoR) (MDR S. aureus (CH-11); 2X MIC): 3.5 × 10^−9
Frequency of resistance (FoR) (MDR S. aureus (CH-11); 3X MIC): 1.8 × 10^−9
Frequency of resistance (FoR) (MDR S. aureus (CH-11); 4X MIC): 2.9 × 10^−8
Frequency of resistance (FoR) (MDR S. aureus (CH-11); 5X MIC): 5.3 × 10^−10
Frequency of resistance (FoR) (MDR S. aureus (CH-11); 10X MIC): <3.2 × 10^−10
Whole blood ZOI ([4]; 10 minutes): 10 mm
Whole blood ZOI ([4]; 60 minutes): 9 mm
Whole blood ZOI ([4]; 120 minutes): 8 mm
Whole blood ZOI ([4]; 180 minutes): 8 mm
Whole blood ZOI ([4]; 240 minutes): 8 mm
Adsorption onto blood cells ([4]; mouse blood, 400 μg/mL): not adsorbed onto blood cells
Activity in whole blood ([4]; mouse blood, 400 μg/mL, 0-4 hours): retains full activity in whole blood
Plasma fraction ZOI ([4]; 10 minutes): 11 mm
Plasma fraction ZOI ([4]; 60 minutes): 9 mm
Plasma fraction ZOI ([4]; 120 minutes): 8 mm
Plasma fraction ZOI ([4]; 180 minutes): 8 mm
Plasma fraction ZOI ([4]; 240 minutes): 7 mm
Spiked plasma control ZOI ([4]; plasma spiked with CMB001, 10 minutes): 9 mm
Spiked plasma control ZOI ([4]; plasma spiked with CMB001, 60 minutes): 11 mm
Spiked plasma control ZOI ([4]; plasma spiked with CMB001, 120 minutes): 11 mm
Spiked plasma control ZOI ([4]; plasma spiked with CMB001, 180 minutes): 11 mm
Spiked plasma control ZOI ([4]; plasma spiked with CMB001, 240 minutes): 10 mm
Antibacterial activity (MIC) and chemical integrity after incubation (S. aureus): retained its full antibacterial activity (MIC) and chemical integrity
Cell viability (J774A mouse BALB/c cells): did not reduce cell viability
clearance (in vivo; Mean/Median): 170 mL/min/kg
clearance (in vivo; individual animals 1-2): 166 mL/min/kg
MRT (in vivo; Mean/Median): 40.2 min
MRT (in vivo; individual animals 1-2): 42.6 min
Vd (in vivo; Mean/Median): 6.8 L/kg
Vd (in vivo; individual animals 1-2): 7 L/kg
half-life (in vivo; Mean/Median): 32.4 ± 9 min
half-life (in vivo; individual animals 1-2): 38.4 min
level at 0.08 h (in vivo; whole blood): 4770 ng/mL
level at 0.25 h (in vivo; whole blood): 2450 ng/mL
level at 0.5 h (in vivo; whole blood): 1280 ng/mL
level at 1 h (in vivo; whole blood): 916 ng/mL
level at time molar at 0.08 h (in vivo; whole blood): 1420 nM
level at time molar at 0.25 h (in vivo; whole blood): 733 nM
level at time molar at 0.5 h (in vivo; whole blood): 383 nM
level at time molar at 1 h (in vivo; whole blood): 274 nM
MIC90 [5]: 12.5 µg/mL (≈ 3.73 µM)
MIC range [5]: 6.2 to 12.5 µg/mL
Bacterial burden compared to vehicle control ([6]; 0.5 to 10 mg/kg IV): dose dependent reduction of bacterial burden; also recorded: dose-dependent reduction of S. aureus in the thigh
Thigh burden compared to vehicle-treated group ([6]; 5 to 30 mg/kg IV at 1, 8 and 15 hours post-infection): Significant reduction of thigh burden
Survival to end of study ([6]; 5 to 30 mg/kg IV, 25 h post-infection): Most CMB001-treated animals survived until the end of the study
Thigh burden relative to pre-treatment levels ([6]; all doses, 5 to 30 mg/kg IV): reduced below pre-treatment levels
Antibacterial activity after incubation in human serum or plasma ([7]; 8-hour incubation at 37° C.): retained full antibacterial activity
Antibacterial activity after incubation in human serum or plasma ([7]; 24-hour incubation): somewhat less active
Solubility relative to initial concentration [8]: > 96%
Time at detectable levels in blood ([9]; LLOQ 500 ng/mL): at least 60 minutes
AUC % Back Extrapolation to C0 ([9]; Mean/Median): 16%
AUC % Extrapolation to infinity ([9]; Mean/Median): 29%
tlast ([9]; Mean/Median): 1.00 h
tlast ([9]; individual animals 1-3): 1.00 h
AUC % Back Extrapolation to C0 [9, 11]: 23% and 12% and 13%
AUC % Extrapolation to infinity [9, 11]: 26% and 22% and 41%
Mean Concentration in blood ([9]; 2.00 hours, LLOQ 500 ng/mL): BLQ*
Mean Concentration in blood ([9]; 4.00 hours, LLOQ 500 ng/mL): BLQ
Mean Concentration in blood ([9]; 8.00 hours, LLOQ 500 ng/mL): BLQ
Mean Concentration in blood ([9]; 24.00 hours, LLOQ 500 ng/mL): BLQ
MIC [10]: 6.25 µg/mL (≈ 1.87 µM)
Frequency of resistance (FoR) (A. baumannii (CH-46); 2X MIC): 1.1 × 10^−7
Frequency of resistance (FoR) (A. baumannii (CH-46); 3X MIC): 2.9 × 10^−9
Frequency of resistance (FoR) (A. baumannii (CH-46); 5X MIC): <1 × 10^−11
Frequency of resistance (FoR) (A. baumannii (CH-46); 10X MIC): <1 × 10^−11
Frequency of resistance (FoR) (S. aureus (ATCC #29213); 2X MIC): 1.3 × 10^−8
Frequency of resistance (FoR) (S. aureus (ATCC #29213); 3X MIC): 2.2 × 10^−9
Frequency of resistance (FoR) (S. aureus (ATCC #29213); 4X MIC): 2.6 × 10^−9
Frequency of resistance (FoR) (S. aureus (ATCC #29213); 5X MIC): 3.7 × 10^−10
Frequency of resistance (FoR) (S. aureus (ATCC #29213); 10X MIC): <3.7 × 10^−10
MIC range (Acinetobacter baumannii): 3.4 to 27.7 µg/mL
Bacteriolytic activity, change of OD600 (S. aureus or MRSA): marked decrease of OD600
